# Molecular target: recombinant human ACC2 (Homo sapiens (Human), UniProt O00763)
# Test: Measurement of inhibitory activity on human ACC2 (MALDI-TOF MS, acetyl CoA to malonyl CoA conversion)
# Type: biochemical
# Settings: Tables 155-159
# Method in brief: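 His-tagged human ACC2 (residues 27–2458) from baculovirus-infected Sf-9 cells was preincubated 1 h in pH 7.4 HEPES-KOH buffer with MgCl2, 6-10 mM potassium citrate, glutathione and BSA. Substrate solution held 1 mM ATP, 0.8 mM acetyl CoA and 25-50 mM bicarbonate. After 1–3 h at room temperature, malonyl CoA/(malonyl+acetyl CoA) was read by negative-mode MALDI-TOF MS; citrate, bicarbonate and time varied by enzyme lot.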
# Chain of recombinant human ACC2 (O00763 27-2458): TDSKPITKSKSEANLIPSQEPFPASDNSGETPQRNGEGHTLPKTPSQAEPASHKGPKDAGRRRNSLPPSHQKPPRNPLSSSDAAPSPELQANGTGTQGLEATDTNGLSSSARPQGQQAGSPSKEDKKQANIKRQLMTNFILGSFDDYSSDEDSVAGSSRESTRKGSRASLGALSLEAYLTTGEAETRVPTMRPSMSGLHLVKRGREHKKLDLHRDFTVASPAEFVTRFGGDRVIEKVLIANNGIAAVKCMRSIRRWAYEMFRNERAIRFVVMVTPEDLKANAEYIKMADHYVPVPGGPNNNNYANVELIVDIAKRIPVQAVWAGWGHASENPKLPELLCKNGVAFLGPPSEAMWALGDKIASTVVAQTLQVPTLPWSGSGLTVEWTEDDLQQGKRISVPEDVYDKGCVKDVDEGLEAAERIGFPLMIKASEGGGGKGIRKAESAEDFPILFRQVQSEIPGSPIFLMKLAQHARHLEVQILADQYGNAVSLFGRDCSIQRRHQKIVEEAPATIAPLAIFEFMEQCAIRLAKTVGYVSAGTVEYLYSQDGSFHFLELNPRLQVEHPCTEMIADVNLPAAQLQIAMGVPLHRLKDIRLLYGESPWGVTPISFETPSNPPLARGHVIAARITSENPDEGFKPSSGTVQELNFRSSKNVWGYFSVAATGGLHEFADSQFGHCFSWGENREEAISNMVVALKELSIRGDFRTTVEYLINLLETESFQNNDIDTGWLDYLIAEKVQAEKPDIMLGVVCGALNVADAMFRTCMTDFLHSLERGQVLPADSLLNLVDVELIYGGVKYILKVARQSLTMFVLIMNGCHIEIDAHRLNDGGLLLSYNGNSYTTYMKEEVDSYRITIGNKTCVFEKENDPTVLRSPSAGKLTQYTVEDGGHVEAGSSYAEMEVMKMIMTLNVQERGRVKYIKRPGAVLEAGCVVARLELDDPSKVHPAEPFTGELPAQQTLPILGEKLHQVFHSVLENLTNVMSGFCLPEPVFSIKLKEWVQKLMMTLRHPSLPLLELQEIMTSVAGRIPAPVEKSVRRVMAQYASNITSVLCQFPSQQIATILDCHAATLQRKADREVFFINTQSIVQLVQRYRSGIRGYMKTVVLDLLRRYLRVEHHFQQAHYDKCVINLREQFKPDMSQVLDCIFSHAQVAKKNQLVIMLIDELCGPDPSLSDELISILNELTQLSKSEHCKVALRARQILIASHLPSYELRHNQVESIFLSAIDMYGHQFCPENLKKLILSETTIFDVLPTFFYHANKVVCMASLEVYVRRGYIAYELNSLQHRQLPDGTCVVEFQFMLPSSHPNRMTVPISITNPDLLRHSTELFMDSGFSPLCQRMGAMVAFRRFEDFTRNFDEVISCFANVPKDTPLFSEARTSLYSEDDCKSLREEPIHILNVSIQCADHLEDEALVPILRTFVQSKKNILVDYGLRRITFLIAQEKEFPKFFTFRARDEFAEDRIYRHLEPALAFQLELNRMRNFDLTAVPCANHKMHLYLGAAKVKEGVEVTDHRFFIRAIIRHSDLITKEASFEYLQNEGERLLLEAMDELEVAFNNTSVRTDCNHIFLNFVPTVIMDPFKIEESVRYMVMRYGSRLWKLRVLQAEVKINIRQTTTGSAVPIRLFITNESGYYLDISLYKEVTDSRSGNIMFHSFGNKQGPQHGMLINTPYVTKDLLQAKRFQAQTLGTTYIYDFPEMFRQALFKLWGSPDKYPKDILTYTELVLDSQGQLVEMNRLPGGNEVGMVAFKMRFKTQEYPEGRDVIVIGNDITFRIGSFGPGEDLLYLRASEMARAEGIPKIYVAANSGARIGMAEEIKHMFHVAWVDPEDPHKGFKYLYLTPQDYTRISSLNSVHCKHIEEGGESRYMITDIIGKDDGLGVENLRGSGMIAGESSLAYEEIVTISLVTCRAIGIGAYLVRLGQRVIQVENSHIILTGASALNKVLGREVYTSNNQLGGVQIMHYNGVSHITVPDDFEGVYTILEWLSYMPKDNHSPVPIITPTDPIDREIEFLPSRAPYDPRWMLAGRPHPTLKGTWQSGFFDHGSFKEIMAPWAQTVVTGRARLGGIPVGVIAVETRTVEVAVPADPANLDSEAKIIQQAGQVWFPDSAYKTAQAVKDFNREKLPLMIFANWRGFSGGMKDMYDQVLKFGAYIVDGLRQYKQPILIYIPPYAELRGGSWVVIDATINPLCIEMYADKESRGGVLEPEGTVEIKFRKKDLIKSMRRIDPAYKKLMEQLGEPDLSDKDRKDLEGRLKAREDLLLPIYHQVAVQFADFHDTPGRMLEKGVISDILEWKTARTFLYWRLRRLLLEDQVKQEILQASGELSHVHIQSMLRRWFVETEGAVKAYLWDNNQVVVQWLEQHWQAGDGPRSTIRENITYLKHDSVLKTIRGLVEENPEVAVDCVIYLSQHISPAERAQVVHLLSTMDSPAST
row,Structure (SMILES),IC50 [µM]
1,CC(=O)N[C@@H](C)CO[C@H]1CC[C@H](Oc2nc3ccc(-c4ccccc4)cc3n2C)CC1 [Compound I-582],0.168
2,CC(=O)N[C@@H](C)CO[C@H]1CC[C@H](Oc2nc3ccc(Oc4ccccc4)cc3n2C)CC1 [Compound I-586],0.009
3,CC(=O)N[C@@H](C)CO[C@H]1CC[C@H](Oc2nc3ccc(Oc4ccccn4)cc3n2C)CC1 [Compound I-590],0.584
4,CC(=O)N[C@@H](C)CO[C@H]1CC[C@H](Oc2nc3ccc(Oc4cccnc4)cc3n2C)CC1 [Compound I-593],0.08
5,CC(=O)N[C@@H](C)CO[C@H]1CC[C@H](Oc2nc3ccc(Oc4ccncc4)cc3n2C)CC1 [Compound I-594],0.383
6,CCOc1ccc2nc(O[C@H]3CC[C@H](OC[C@H](C)NC(C)=O)CC3)n(C)c2c1F [Compound I-601],0.008
7,CCOc1c(Cl)cc2nc(O[C@H]3CC[C@H](OC[C@H](C)NC(C)=O)CC3)n(C)c2c1Cl [Compound I-603],0.007
8,CCOc1ccc2nc(O[C@H]3CC[C@H](OC[C@H](C)NC(C)=O)CC3)n(C)c2c1Br [Compound I-605],0.013
9,CCOc1ccc2nc(O[C@H]3CC[C@H](OC[C@H](C)NC(C)=O)CC3)n(C)c2c1C [Compound I-606],0.074
10,CC(=O)N[C@@H](C)CO[C@H]1CC[C@H](Oc2nc3cnc(OC(C)C)cc3n2C)CC1 [Compound I-607],0.11
11,CC(=O)N[C@@H](C)CO[C@H]1CC[C@H](Oc2nc3c(Cl)c(Cl)c(OCC(F)F)cc3n2C)CC1 [Compound I-609],0.525
12,CCOc1cc2c(nc(O[C@H]3CC[C@H](OC[C@H](C)NC(C)=O)CC3)n2C)c(F)c1Cl [Compound I-610],0.085
13,CC(=O)N[C@@H](C)CO[C@H]1CC[C@H](Oc2nc3c(F)cc(OC4CC4)c(F)c3n2C)CC1 [Compound I-611],0.003
14,CC(=O)N[C@@H](C)CC[C@H]1OC[C@H](Oc2nc3c(F)cc(OCC(F)F)c(F)c3n2C)CO1 [Compound I-615],0.027
15,CC(=O)N[C@@H](C)CO[C@H]1CC[C@H](Oc2nc3c(F)cc(OC4CN(C(C)=O)C4)c(F)c3n2C)CC1 [Compound I-616],0.24
16,CC(=O)N[C@@H](C)CO[C@H]1CC[C@H](Oc2nc3c(F)c(F)c(F)c(F)c3n2C)CC1 [Compound I-619],0.009
17,CC(=O)N[C@@H](C)CO[C@H]1CC[C@H](Oc2nc3c(F)cc(Br)cc3n2C)CC1 [Compound I-622],0.072
18,CC(=O)N[C@@H](C)CO[C@H]1CC[C@H](Oc2nc3c(Cl)cc(OCC(F)F)c(Cl)c3n2C)CC1 [Compound I-623],0.017

row,Structure (SMILES),IC50 [µM]
1,CC(=O)N[C@@H](C)CO[C@H]1CC[C@H](Oc2nc3cnc(OCC4CC4)c(F)c3n2C)CC1 [Compound I-625],0.005
2,CC(=O)N[C@@H](C)CC[C@@H]1CC[C@@H](Oc2nc3c(F)cc(OCC(F)F)c(F)c3n2C)CO1 [Compound I-627],0.005
3,C[C@@H](CO[C@H]1CC[C@H](Oc2nc3c(F)cc(OCC(F)F)c(F)c3n2C)CC1)NC(=O)c1cnn(C)c1 [Compound I-629],0.098
4,C[C@@H](CO[C@H]1CC[C@H](Oc2nc3c(F)cc(OCC(F)F)c(F)c3n2C)CC1)NC(=O)N(C)C [Compound I-631],0.01
5,CC(=O)N[C@@H](C)CO[C@H]1CC[C@H](Oc2nc3cnc(OCc4ccccc4)c(F)c3n2C)CC1 [Compound I-634],0.034
6,CCOc1cc(F)c2c(nc(O[C@H]3CC[C@H](OC[C@H](C)NC(C)=O)CC3)n2C)c1F [Compound I-635],0.104
7,CC(=O)N[C@@H](C)CC[C@H]1CC[C@H](Oc2nc3cnc(OC4CC4)c(Cl)c3n2C)CC1 [Compound I-636],0.004
8,CC(=O)N[C@@H](C)CO[C@H]1CC[C@H](Oc2nc3c(F)cc(OCC(F)F)c(Cl)c3n2C)CC1 [Compound I-637],0.004
9,CC(=O)N[C@@H](C)CO[C@H]1CC[C@H](Oc2nc3c(Cl)ccc(F)c3n2C)CC1 [Compound I-638],0.14
10,CC(=O)N[C@@H](C)CO[C@H]1CC[C@H](Oc2nc3c(F)cc(OC4CCC4)c(F)c3n2C)CC1 [Compound I-639],0.002
11,CC(=O)N[C@@H](C)CC[C@H]1CC[C@H](Oc2nc3c(F)cc(OCC(F)F)c(F)c3n2C)CO1 [Compound I-642],0.007
12,CC(=O)N[C@@H](C)CC[C@H]1OC[C@H](Oc2nc3cnc(OCC(F)F)c(Cl)c3n2C)C[C@@H]1C [Compound I-644],0.026
13,CCOc1ncc2nc(O[C@H]3CC[C@H](OC[C@H](C)NC(C)=O)CC3)n(C)c2c1Cl [Compound I-646],0.015
14,CC(=O)N[C@@H](C)CO[C@H]1CC[C@H](Oc2nc3c(Cl)cc(C4CC4)cc3n2C)CC1 [Compound I-648],0.11
15,CC(=O)N[C@@H](C)CO[C@H]1CC[C@H](Oc2nc3c(Cl)cc(Oc4ccccc4)cc3n2C)CC1 [Compound I-649],0.009
16,CC(=O)N[C@@H](C)CO[C@H]1CC[C@H](Oc2nc3c(C#N)cc(OCC(F)F)c(F)c3n2C)CC1 [Compound I-653],0.065
17,CC(=O)N[C@@H](C)CO[C@H]1CC[C@H](Oc2nc3cc(F)c(OCC(F)F)c(F)c3n2C)CC1 [Compound I-658],0.004

# More lines, in order of falling IC50, values ahead:
row,IC50 [µM],Structure (SMILES)
1,0.375,CC(=O)N[C@@H](C)CO[C@H]1CC[C@H](Oc2nc3c(C4CC4)cc(OCC(F)F)cc3n2C)CC1 [Compound I-650]
2,0.334,CCOc1ccc2nc(O[C@H]3CC[C@H](OC[C@H](C)NC(C)=O)CC3)n(CC)c2c1 [Compound I-579]
3,0.25,CC(=O)N[C@@H](C)C(F)(F)C[C@@H]1CC[C@@H](Oc2nc3c(F)cc(OCC(F)F)c(F)c3n2C)CO1 [Compound I-643]
4,0.11,CC(=O)N[C@@H](C)CO[C@H]1CC[C@H](Oc2nc3ccc(SCC(C)C)cc3n2C)CC1 [Compound I-578]
5,0.11,CC(=O)N[C@@H](C)CO[C@H]1CC[C@H](Oc2nc3cnc(Oc4ccccc4)cc3n2C)CC1 [Compound I-592]
6,0.11,C[C@@H](CO[C@H]1CC[C@H](Oc2nc3c(F)cc(OCC(F)F)c(F)c3n2C)CC1)NC(=O)COC(N)=O [Compound I-640]
7,0.087,CC(=O)N[C@@H](C)CO[C@H]1CC[C@H](Oc2nc3cc(C(F)(F)F)ccc3n2C)CC1 [Compound I-587]
8,0.077,CC(=O)N[C@@H](C)CO[C@H]1CC[C@H](Oc2nc3ccc(C(C)C)cc3n2C)CC1 [Compound I-585]
9,0.073,CCOc1cc2c(nc(O[C@H]3CC[C@H](OC[C@H](C)NC(C)=O)CC3)n2C)c(F)n1 [Compound I-641]
10,0.071,CCc1ccc2nc(O[C@H]3CC[C@H](OC[C@H](C)NC(C)=O)CC3)n(C)c2c1 [Compound I-583]
11,0.059,C[C@@H](CO[C@H]1CC[C@H](Oc2nc3c(F)cc(OCC(F)F)c(F)c3n2C)CC1)NC(=O)CO [Compound I-628]
12,0.039,C[C@@H](CO[C@H]1CC[C@H](Oc2nc3c(F)cc(OCC(F)F)c(F)c3n2C)CC1)NC(=O)c1cn[nH]c1 [Compound I-656]
13,0.028,CC(=O)N[C@@H](C)CO[C@H]1CC[C@H](Oc2nc3cnc(OCc4ccccc4)c(Cl)c3n2C)CC1 [Compound I-620]
14,0.025,CC(=O)N[C@@H](C)CO[C@H]1CC[C@H](Oc2nc3c(F)cc(F)c(F)c3n2C)CC1 [Compound I-630]
15,0.023,COc1ccc2nc(O[C@H]3CC[C@H](OC[C@H](C)NC(C)=O)CC3)n(C)c2c1F [Compound I-599]
16,0.019,CC(=O)N[C@@H](C)CO[C@H]1CC[C@H](Oc2nc3c(C)nc(OC4CC4)c(F)c3n2C)CC1 [Compound I-632]

row,IC50 [µM],Structure (SMILES)
1,0.017,CC(=O)N[C@@H](C)CO[C@H]1CC[C@H](Oc2nc3c(Cl)c(F)c(OCC(F)F)c(F)c3n2C)CC1 [Compound I-618]
2,0.014,CC(=O)N[C@@H](C)CC[C@H]1CC[C@H](Oc2nc3cnc(OCC(F)F)c(Cl)c3n2C)CO1 [Compound I-657]
3,0.013,CC(=O)N[C@@H](C)CO[C@H]1CC[C@H](Oc2nc3ccc(OCc4ccccc4)c(F)c3n2C)CC1 [Compound I-600]
4,0.012,CC(=O)N[C@@H](C)CO[C@H]1CC[C@H](Oc2nc3ccc(OC(C)C)c(F)c3n2C)CC1 [Compound I-602]
5,0.011,CC(=O)N[C@@H](C)CO[C@H]1CC[C@H](Oc2nc3cnc(OC[C@H](C)F)c(Cl)c3n2C)CC1 [Compound I-608]
6,0.011,C[C@@H](CO[C@H]1CC[C@H](Oc2nc3c(F)cc(OCC(F)F)c(F)c3n2C)CC1)NC(=O)C(F)F [Compound I-614]
7,0.01,CC(=O)N[C@@H](C)CO[C@H]1CC[C@H](Oc2nc3ccc(Oc4ccc(F)cc4)cc3n2C)CC1 [Compound I-596]
8,0.009,CC(=O)N[C@@H](C)CO[C@H]1CC[C@H](Oc2nc3c(C#N)cc(OC4CC4)c(F)c3n2C)CC1 [Compound I-617]
9,0.009,CC(=O)N[C@@H](C)CO[C@H]1CC[C@H](Oc2nc3cnc(OCC(F)F)c(F)c3n2C)CC1 [Compound I-624]
10,0.008,CC(=O)N[C@@H](C)CO[C@H]1CC[C@H](Oc2nc3ccc(C4CC4)c(F)c3n2C)CC1 [Compound I-621]
11,0.007,CC(=O)N[C@@H](C)CO[C@H]1CC[C@H](Oc2nc3c(F)cc(OCc4ccccc4)c(F)c3n2C)CC1 [Compound I-652]
12,0.006,CCOc1ccc2nc(O[C@H]3CC[C@H](OC[C@H](C)NC(C)=O)CC3)n(C)c2c1Cl [Compound I-604]
13,0.006,CC(=O)N[C@@H](C)CO[C@H]1CC[C@H](Oc2nc3c(F)cc(OCC4CC4)c(F)c3n2C)CC1 [Compound I-626]
14,0.006,CC(=O)N[C@@H](C)CO[C@H]1CC[C@H](Oc2nc3cnc(OC(C)C)c(Cl)c3n2C)CC1 [Compound I-647]
15,0.004,CCOc1cc(Cl)c2nc(O[C@H]3CC[C@H](OC[C@H](C)NC(C)=O)CC3)n(C)c2c1F [Compound I-651]
16,0.002,CC(=O)N[C@@H](C)CO[C@H]1CC[C@H](Oc2nc3c(F)cc(OC4CC4)c(Cl)c3n2C)CC1 [Compound I-655]
